ChEMBL document CHEMBL3507680, “University of Dundee, Gates Library screen for HepG2 cell viability”

Test: Human HepG2 cell viability assay in 384 well format
Assay type: toxicity, cell-based
Parameters: dose 125 nL, time 70.5 hour; cytotoxicity at 70.5 h: concentration not given beside the values
Settings: HepG2 cells, read-out: Inhibition

Row | SMILES | cytotoxicity at 70.5 h
1 | CCC(C)(NCc1cccc(NC(C)=O)c1)c1nc(C)cs1 (stereo not drawn) | -0.722%
2 | Cc1ccc(NC(=O)CCc2cnn(C)c2)cc1F | -8.37%
3 | Cc1ccc(-n2cc(S(=O)(=O)Nc3cccc(C(=O)O)c3C)cn2)cc1 | -12.2%
4 | Cn1cccc1C(=O)NCc1cn2c(n1)CN(CC1CCOC1)CC2 (stereo not drawn) | 17.2%
5 | COC(=O)Cn1c(=O)nc2n1C(=O)N(c1ccc(Cl)cc1)C2 | 8.74%
6 | COc1cccc(F)c1CN1CCC(c2nc(C)cc(C)n2)C1 (stereo not drawn) | 14.3%
7 | Cc1csc(N2CCCN(Cc3ccn(C)c(=O)c3)CC2)n1 | -3.93%
8 | O=C(c1cc[nH]n1)N1CC[C@@H]2CN(Cc3ccccc3)S(=O)(=O)[C@@H]2CC1 | -13.3%
9 | CO[C@H]1CCN(Cc2cccs2)[C@@H]2CN(Cc3ccncc3)C[C@H]12 | -2.84%
10 | CCn1nccc1CNc1[nH]cnc2nncc1-2 | -20.2%
11 | CCc1nn(C)c(Cl)c1CN1CCN(c2ccc(C(N)=O)cn2)CC1 | -8.09%
12 | Cc1ncc(S(C)(=O)=O)c(N2CCCCCC2)n1 | 7.29%
13 | CC(Cn1ccnc1)NC(=O)Cc1ccc2c(c1)OCCO2 (stereo not drawn) | -0.766%
14 | CC(C)N1CCCC(Cc2nccnc2Cl)CC1 (stereo not drawn) | 0.246%
15 | O=C(c1cccs1)N1CCCC2(COCCN(c3cccnc3)C2)C1 (stereo not drawn) | -6.3%
16 | CCOc1ncccc1CN1Cc2ncccc2C1=O | -6.82%
17 | O=C1OC2(CCNCC2)CN1CC(=O)N1CCCC1c1ccco1 (stereo not drawn) | -9.95%
18 | CC(C)CC(NC(=O)c1ccn(C)c(=O)c1)c1ccccc1 (stereo not drawn) | 33.2%
19 | Cc1cc(CN2CCN(CC(=O)NC3(C#N)CCCCC3)CC2)on1 | 2.07%
20 | CC(C)(C)c1nnc(CN2CCCC(c3cc(C(N)=O)[nH]n3)C2)o1 (stereo not drawn) | 10.9%
21 | COc1cc(-c2cc(-c3ccn(C)c3)nc(N)c2C#N)cc(OC)c1O | -1.48%
22 | O=C(NCc1cncc2c1CCN(C1CCOCC1)C2)c1ccno1 | -7.6%
23 | CCc1nsc(NC2CCOC3(CCCC3)C2)n1 (stereo not drawn) | 1.42%

Row | SMILES | cytotoxicity at 70.5 h
24 | CNC(=O)Cc1ccccc1NC(=O)N[C@H]1c2ccccc2C[C@H]1O | -13.7%
25 | c1cnc(NCc2cncc3c2CCN(Cc2ccoc2)C3)nc1 | -8.36%
26 | Fc1cccnc1N1CCOCC2(CCCNC2)C1 (stereo not drawn) | 0.635%
27 | COCC1CCCN(C(=O)c2ccc(N(C)Cc3cnn(C)c3)nc2)C1 (stereo not drawn) | 26%
28 | Cc1cccc(Cl)c1NC(=O)Cn1cc(C(=O)O)ccc1=O | -2.75%
29 | CCOc1cccc(CNC2CCCN(Cc3noc(C)n3)C2)c1 (stereo not drawn) | -12.1%
30 | Cc1ccc(CN2CC[C@@H]3O[C@@H](C(=O)N4CCN(C)CC4)C[C@@H]32)cc1 | -1.43%
31 | CN(C)CCNCCC(c1ccccc1)C1CCOC(C)(C)C1 (stereo not drawn) | -6.43%
32 | COc1ccc(CCNC(C)c2ccc3[nH]c(=O)[nH]c3c2)cc1OC (stereo not drawn) | 3.32%
33 | CC(C)(C)C1CCC(NCCN2CCOCC2)CC1 (stereo not drawn) | -5.37%
34 | O=C(NCc1cccc(-n2cncn2)c1)NCC(C1CC1)C1CC1 | -5.02%
35 | CCOc1ccc(SCCS(=O)(=O)CC)cc1 | -6.32%
36 | CC(C)=CCN1C[C@H]2CC[C@@H]1CN(C(=O)Cc1c(C)nc(C)[nH]c1=O)C2 | 1.03%
37 | Cc1cc(C(=O)N2CCCC2c2noc(C)n2)[nH]n1 (stereo not drawn) | 1.6%
38 | Cc1csc(C2(NC(=O)CCc3ccncc3)CCCC2)n1 | -7.21%
39 | CN(Cc1cc(=O)c(O)co1)C1CCCN(c2ccccc2)C1 (stereo not drawn) | 24.6%
40 | Cc1ccc(-c2nc(CNS(=O)(=O)N(C)C)[nH]c2-c2ccccn2)cc1 | -2.34%
41 | c1ccc(-c2ncc(CN3CCCCC3CCn3cccn3)cn2)nc1 (stereo not drawn) | -4.71%
42 | COc1ccccc1OC1CCN(C(=O)CCCn2ccnc2)CC1 | -6.19%
43 | CC(=O)Nc1ccc(CNC2CCCSC2)cc1 (stereo not drawn) | 23.3%
44 | O=C(CN1CCNCC1)NCc1ccc2sccc2c1 | 3.14%
45 | COc1ccc(Br)cc1CCC(=O)N1CCCC(O)C1 (stereo not drawn) | -5.19%
46 | CC(Cn1ccnc1)NC(=O)NCCNC(=O)C(C)C (stereo not drawn) | 16.2%

Row | SMILES | cytotoxicity at 70.5 h
47 | OC(CNC1CCOCC1)c1cccc(OCc2ccccc2)c1 (stereo not drawn) | -10.5%
48 | CS(=O)(=O)c1ccc(-c2nc(C(=O)N3CCCC3)n3ccccc23)cc1 | -8.24%
49 | CS(=O)(=O)N1CCN(C(=O)c2cc(-c3ccc(Br)s3)n[nH]2)CC1 | -10.2%
50 | CC(C)(C)C(=O)NCC(=O)NCC1CCCS1 (stereo not drawn) | -10.6%
51 | NCCc1c(-c2ccc(F)cc2)[nH][nH]c1=O | -3.38%
52 | Cc1nnc(SCC(=O)c2cc3c(cc2Cl)NC(=O)C3)o1 | -31.5%
53 | CO[C@H]1CCN(c2ccc(C)nn2)[C@H]1Cc1cnn(C)c1 | 5.26%
54 | CCOc1ncc(NC(=O)c2ccccn2)c(OCC)n1 | -13.3%
55 | CCCN(C(=O)c1cc2c([nH]c1=O)CCCC2=O)C1CCCCC1 | 27.9%
56 | CCc1nccn1CC(=O)Nc1cccc(C(=O)N(C)C)c1 | 7.42%
57 | CC(C)(C)NC(=O)[C@@H]1CNC[C@]12Cc1ccccc1C(=O)N2 | -4.03%
58 | CCOC(=O)Cn1c(=O)nc(N)c2c(-c3ccc(OC)cc3)csc21 | -12.9%
59 | COCCOC(=O)N1CC2=CC(C)(C)COc3ccc(OC)c(c32)C1 | -1.64%
60 | COCCNS(=O)(=O)c1cccc(CSC)c1 | 18.6%
61 | COc1ccc(CN2CC[C@H]3[C@H](CO[C@H]3CNC(=O)N(C)C)C2)cc1 | -0.91%
62 | CS(=O)(=O)c1cncnc1C1CCCN(C(=O)Nc2ccc(F)cc2)C1 (stereo not drawn) | -4.34%
63 | Cc1cccc2ncnc(N3CCOC(C)C3)c12 (stereo not drawn) | 2.61%
64 | COc1cccc(-c2csc(Cn3ccc(=O)[nH]c3=O)n2)c1 | 19.5%
65 | COCC1CN(Cc2ccncc2)Cc2nnn(CC3CC3)c21 (stereo not drawn) | -10.7%
66 | O=C(Nc1ccccc1)c1ccc(NCc2nccs2)nn1 | -10%
67 | CC(C)(C)c1n[nH]cc1CNCC1CCN(C2CC2)C1 (stereo not drawn) | -6.24%
68 | O=C1C[C@H]2[C@@H](CCN2Cc2ccccn2)N1Cc1cccnc1 | -6.81%
69 | COC1CCN(S(=O)(=O)N2CCCC(c3cccc(C(=O)O)c3)C2)CC1 (stereo not drawn) | -9.91%

Row | SMILES | cytotoxicity at 70.5 h
70 | CCOCCn1nc(C)cc1C(=O)N1CCOCC(CO)C1 (stereo not drawn) | 12%
71 | C=C(C)CN(CC)S(=O)(=O)c1cccc(F)c1C#N | -9.8%
72 | Cc1cccc(CN2CC[C@@H]3[C@@H]2CCN3C(=O)Cc2ccsc2)n1 | -22.6%
73 | CCc1nc(CNC2CCN(S(C)(=O)=O)CC2)cs1 | -0.997%
74 | CC(C)CCOCCNC(=O)Nc1cc(C(F)(F)F)c[nH]c1=O | -2.4%
75 | Cc1cccc(CN2C[C@@H]3CN(C(=O)c4ccsc4)C[C@@H]3C2=O)n1 | -2.24%
76 | CCc1nc2n(n1)CC(Nc1ccnc(-c3ccccc3)n1)CC2 (stereo not drawn) | -3.97%
77 | Cc1ccc(=O)n(CC2(O)CCN(Cc3cc(C)c(O)c(C)c3)CC2)n1 | 22.7%
78 | CNc1nc(CN2C[C@@H](NC(C)=O)[C@H](c3ccc(C)o3)C2)cs1 | -16.5%
79 | CCc1cnc(N2C[C@H]3C[C@H](C(=O)N4CCOCC4)[C@@H](C2)O3)nc1 | -6.74%
80 | CC(C(=O)NCCOc1ccc2c(c1)CCC2)n1cncn1 (stereo not drawn) | 7.17%
81 | CN(C)CCN(Cc1ccc(F)cc1)C(=O)c1ccn(C)c(=O)c1 | -5.2%
82 | O=C1CC(N2CCN(c3ccc(O)cc3)CC2)C(=O)N1Cc1cccs1 (stereo not drawn) | -7.69%
83 | c1csc(N2CCCN(c3ncnc4sccc34)CC2)n1 | 10.8%
84 | Cc1cc2n(n1)CC(CNC1CCN(c3ccc(F)cc3)CC1)CN2 (stereo not drawn) | -5.25%
85 | CC(C(=O)N1CCOCC1)n1cc(Br)cn1 (stereo not drawn) | 12.3%
86 | O=S(=O)(C1CC1)N1CCC2(CN(c3ncccn3)C2)C1 | 9.33%
87 | CN1C(=O)C(c2ccccc2)CC12CCN(CCN1CCCC1=O)CC2 (stereo not drawn) | 12.2%
88 | CNC(=O)c1cc(OC)c(OC)cc1N(C)S(C)(=O)=O | -7.84%
89 | COCCN1CCN(Cc2cnc(C3(C)CCCCO3)nc2)CC1 (stereo not drawn) | 0.727%
90 | O=C(Nc1cn[nH]c1)N1CCN(CCSc2ccccc2)CC1 | 1.53%
91 | Cc1cc(C(=O)NCC(O)c2ccc(Cl)s2)c(C)o1 (stereo not drawn) | -10.3%
92 | O=C(CC1CCN(c2cccnn2)CC1)NC1CCOCC1 | -17%

Row | SMILES | cytotoxicity at 70.5 h
93 | COCc1cc(CNc2cnn(CC(F)F)c2)ccc1OC | 1.97%
94 | CCc1nc2ccccc2c(=O)n1CC1(O)CCNCC1 | -11.1%
95 | COc1ccccc1Oc1ncccc1CNC(=O)[C@@H](N)[C@@H](C)O | -1.67%
96 | O=C(NCCc1c[nH]cn1)c1ccc(S(=O)(=O)NC2CCCC2)cc1 | -1.62%
97 | O=C(c1cccc(-c2ncc[nH]2)c1)N1CC[C@H](CO)[C@@H](O)C1 | -2.73%
98 | CSCC1CCCN(c2ncnc3oc(C)nc23)C1 (stereo not drawn) | -9.81%
99 | COCCN(Cc1ccccc1)c1cc(C)ncn1 | -6.25%
100 | Cc1ccc(N2CCCC(N(C)Cc3ccccn3)C2)nn1 (stereo not drawn) | -10.3%
101 | O=C(c1cccs1)N1CCc2nnc(COc3cncnc3)n2CC1 | 14.1%
102 | COCCN1CCc2cc(C(=O)N(C)C)c(NCC3CC3)nc2CC1 | -4.26%
103 | O=C(c1cscn1)N1CCn2cnc(COCC3CC3)c2C1 | -4.79%
104 | Cc1c(C(=O)N2CCC2(C)C)nnn1-c1cccc2cccnc12 | -3.77%
105 | Cc1cc(F)c2c(c1)CCCN2S(=O)(=O)c1ncn(C)c1Cl | -0.387%
106 | Oc1nc(-c2cnccn2)nc2c1CCN(Cc1ccccn1)C2 | -5.26%
107 | CC(NCc1cnc(N2CCN(C)CC2)nc1)c1ccc(F)cc1 (stereo not drawn) | -6.26%
108 | COc1ccc2ncn(Cc3ncc[nH]3)c(=O)c2c1 | 2.5%
109 | COc1ccc(CN2CCn3c(C(=O)N(C)C)cnc3C2)cc1 | -3.13%
110 | COCCn1ccc(NC(=O)Nc2ccccn2)n1 | -10%
111 | Cc1cc(C)n(CCCN(C)C(=O)[C@H]2CCCO2)n1 | -14.9%
112 | CCc1nc(CNC(=O)c2ccc(C(C)N3CCCCC3)o2)cc(=O)[nH]1 (stereo not drawn) | -6.44%
113 | CC(=O)N1C[C@H]2CNC[C@@]2(C(=O)NCCOc2ccccc2F)C1 | 0.818%
